# Laboratory results: patent US20230372335A1, “TREATMENT OF COGNITIVE IMPAIRMENT WITH A CNS-PENETRANT sGC STIMULATOR” (Cyclerion Therapeutics, Inc., priority 2020, published 2023)
# “Also recorded” adds a separate entry of the source.
# Legend:
# [1] = system: rodents; conditions: pre-clinical models; cited from earlier work
# [2] = system: rats; conditions: cited from earlier work
# [3] = system: pre-clinical models; conditions: cited from earlier work
# [4] = Plasma and CSF concentrations in NCT03856827 trial; assay type: in vivo, human; conditions: total oral daily dose of 10 mg
# [5] = system: healthy elderly participants; experiment: Saccadic eye movements (SEM), NeuroCart, NCT04240158; assay type: in vivo, human; conditions: 15 mg oral once daily
# Procedure: In this trial, SEMs were recorded at different times. Recording and analysis of SEMs were conducted with a microcomputer-based system for sampling and analysis of eye movements. The program for signal collection and the AD-converter was from Cambridge Electronic Design (CED Ltd., Cambridge, UK), the amplification by Grass (Grass-Telefactor, An Astro-Med, Inc. Product Group, Braintree, MA, USA) and the sampling and analysis scripts were developed at the CHDR (Leiden, the Netherlands). Disposable silver-silver chloride electrodes (Ambu Blue Sensor N) were applied on the forehead and beside the lateral canthi of both eyes of the participant for registration of the electro-oculographic signals. Skin resistance was reduced to less than 5 kOhm before measurements. […] SEMs were recorded for stimulus amplitudes of approximately 15 degrees to either side. Fifteen saccades were recorded with interstimulus intervals varying randomly between 3 and 6 seconds. […] Saccadic inaccuracy was calculated as the absolute value of the difference between the stimulus angle and the corresponding saccade, expressed as a percentage of the stimulus angle. SEMs were recorded in a training session at screening and during each Neurocart session (on day 1 and 15 of each treatment period at 2 hours pre-dose; on day 15 of each treatment period at 2, 3, and 6 hours post-dose). […]
# [6] = system: healthy elderly participants; experiment: Resting-state EEG power spectra, healthy elderly study NCT04240158; assay type: in vivo, human
# Procedure: Resting-state EEG recordings with open and closed eyes for 5 min in each eye state were performed. Each recording employed alternating periods with eyes open and closed with a duration of 64-seconds for each period. Participants faced a featureless wall and were instructed not to stare, not to move their head and eyes, and to suppress eye blinks.
# An EEG cap with electrodes at the Fz, Cz, Pz, and Oz positions (referring to frontal, central, parietal, and occipital regions at the midline, respectively) was used to record signals. Analyses of EEG-power spectra signals were carried out at the following frequency bands: • Delta-1-4 Hz (typically associated with sleep), Theta-4-7.5 Hz (associated with waking/falling asleep, some association with cognition), Alpha-8-12 Hz (associated with passive wakefulness, and with cognitive processing), Beta-12-25 Hz (associated with alertness and concentration) and Gamma-25-45 Hz (associated with higher cognitive function).
# (§1) This single-center double-blind, randomized, placebo-controlled, two-way, cross-over study evaluated a single dose level of IW-6463 compared to placebo. Subjects (male and female) were enrolled into 2 pre-defined, staggered cohorts (Cohort 1 and Cohort 2). The dose selected for both cohorts was the same but the start of enrollment within each cohort was different. This was based upon the availability of preliminary data from the previously started Phase 1 study NCT03856827 in healthy subjects and the emerging safety profile for that study from which a potential different second dose was being considered, but finally was not selected.
# (§2) One dosage regimen was studied in this clinical trial. For subjects receiving IW-6463 during the given dosing period, IW-6463 tablets were administered orally at a 15-mg total once-daily dose for. For subjects receiving placebo during the given dosing period, placebo tablets to match IW-6463 tablets were used. For Cohort 1, the 15 mg total oral daily dose was selected based on emerging data from the Phase 1 study NCT03856827, pre-clinical qEEG results, as well as multispecies PK parameters. For Cohort 2, in addition to the those data. the emerging data from Cohort 1 of this study supported selection of the 15 mg total oral daily dose.
# [7] = CSF concentration of study drug (pharmacokinetics), NCT04240158; assay type: in vivo, human
# Procedure: as §2
# The PK analysis population is defined as all participants who were randomized, received at least 1 dose of study drug, and have at least 1 measurable drug concentration of Compound 1 in collected samples.
# [8] = system: healthy elderly participants; experiment: N200 (MMN) auditory event-related potential by EEG, NCT04240158; assay type: in vivo, human; conditions: for ERP N200 amplitude: vs placebo or pre-treatment (FIG. 3); for N200 latency response vs age: subjects older than 70 vs 65-69 years old (FIG. 4, FIG. 8)
# Procedure: In P300 and N200 ERP studies, participants were seated wearing the EEG cap and headphones and were instructed to sit still and relax. During the task, participants were presented with auditory tones. Participants were instructed to pay attention to the tones and press a response-button when they heard an infrequent/deviant tone. A total of 500 tones were presented over […], of which 400 were presented as frequent stimuli and 100 as deviant/infrequent stimuli. […] The first 5 trials were frequent tones and there were at least 2 frequent tones between 2 deviant/infrequent tones. The frequent and infrequent tones were 150 ms tones of 500 Hz and 1000 Hz at a sound pressure level of 75 dB, respectively. All tones has a 5 ms rise and fall time. Tones were presented at a fixed rate of 1 Hz.
# as §1, §2
# [9] = system: CSF neuroinflammatory markers; experiment: Exploratory CSF biomarker analysis, NCT04240158; assay type: in vivo, human; conditions: after two weeks of treatment
# Description: Biomarkers measured in the CSF included: neurofilament light chain (NF-L) and cGMP. Other biomarkers measured in CSF include A2M, C3, TIMP1, PAI1 MCP1, PARC (CCL18), MMP3 and TNFR2.
# [10] = system: healthy subjects aged 18 to 62; experiment: EEG in Phase I clinical trial NCT03856827; assay type: in vivo, human
# Description: Nonclinical pharmacology and toxicology data supported conducting clinical studies of Compound Ito assess its safety, tolerability, pharmacokinetic (PK), and pharmacodynamics (PD) in humans. In a Phase I clinical trial (NCT03856827) changes were also observed in the brains of healthy subjects aged 18 to 62 by EEG.
# [11] = system: healthy elderly participants; experiment: Safety and tolerability (adverse events, blood pressure), NCT04240158; assay type: in vivo, human
# Procedure: Evaluations of systolic and diastolic blood pressure, pulse rate, respiratory rate, and temperature were performed throughout the study. Pulse and blood pressure were taken after the participant had rested quietly for 5 minutes in supine position. Automated oscillometric blood pressures and pulse rate were measured using a Dash 3000, Dash 4000, Dynamap 400, or Dynamap ProCare 400.
# as §2
# The safety population is defined as all participants who were randomized and received at least 1 dose of study drug.
# [12] = healthy elderly, 15 mg oral once daily
# [13] = healthy elderly, 15 mg oral once daily, Day 15
# [14] = safety population, 15 mg oral once daily up to 15 days
smiles,measurement,setting,value
Fc1ccccc1Cc1nc(-c2nc(C(F)(F)F)n[nH]2)cn2ccnc12 [Compound I],activation of brain regions by fMRI-BOLD,[1],activation of subcortical brain structures relevant to cognition
same,cerebral blood flow (CBF),[1],increased cerebral blood flow
same,qEEG gamma power in combination with donepezil,"[2]; 10 mg/kg oral plus 1 mg/kg donepezil, 1-2 hours post-dose",further increased
same,qEEG gamma oscillations / gamma power compared to vehicle dosing,[2]; oral suspension,increased gamma oscillations
same,qEEG gamma power,[2]; orally at 10 mg/kg,increased gamma power
same,effects on memory and learning,[3],displaying effects on memory and learning
same,effects on neuroinflammation,[3],positive effects on neuroinflammation
same,neuroprotective properties,[3],displayed neuroprotective properties
same,mean plasma and CSF concentrations vs threshold for pharmacological activity in the brain,[4],exceed the threshold
same,LS mean difference in change from baseline for saccadic peak velocity vs placebo (95% CI),[5]; day 15,"28.53 (−2.76, 59.83)"
same,LS mean difference in change from baseline for saccadic latency (reaction time) vs placebo,"[5]; day 15, p=0.0216",-6.58 ms
same,mean alpha band power relative to placebo,"[6]; Day 15 prior to last dose and 2, 3, 6 hours after last dose (FIG. 1)",increased mean alpha band power relative to placebo at all post-baseline timepoints
same,"EEG (anterior) gamma power, change from baseline",[6]; [12],1 dB
same,"EEG (anterior) gamma power, increase from baseline",[6]; [12],45%
same,"EEG (anterior) alpha power, change from baseline",[6]; [13],0.6 dB
same,"EEG (anterior) alpha power, increase from baseline",[6]; [13],17.5%
same,"EEG (anterior) alpha power, treatment effect vs placebo",[6]; [13],13%
same,"EEG (posterior) alpha power, change relative to baseline",[6]; [13],0.5 dB
same,"EEG (posterior) alpha power, increase from baseline",[6]; [13],13.7%
same,"EEG (posterior) alpha power, treatment effect vs placebo",[6]; [13],17%
same,concentration at 5 h,"[7]; human, CSF, 15 mg oral once daily, 5-hrs post last dose",77 nM
same,CSF concentration relative to threshold expected for pharmacological activity in the brain,[7]; threshold determined from preclinical models,2-3 times
same,magnitude of improvement as age related change in N200 latency,"[8]; at older ages, after two weeks of treatment",10 year
same,ERP N200 latency,"[8]; healthy elderly, 15 mg oral once daily, day 14, compared with placebo, p=0.02",significantly shorter
same,ERP N200 amplitude,[8]; [12],larger N200 negative amplitudes were observed with increasing age
same,ERP N200 amplitude,"[8]; healthy elderly, 15 mg oral once daily, listed as IW-6463",increased the amplitude
same,N200 latency response vs age,[8],smaller latency increases with increasing age; also recorded: greater in subjects older than 70 years old
same,N200 latency response vs age,[8]; listed as IW-6463,greater in subjects older than 70 years old
same,CSF concentration of Alpha 2 macroglobulin (A2M) vs placebo,[9]; nominal p 0.013 (FIG. 9),potentially important reductions in the concentrations
same,CSF concentration of complement C3 (C3) vs placebo,[9]; nominal p 0.039 (FIG. 9),potentially important reductions in the concentrations
same,alpha power compared to placebo,"[10]; NCT03856827, day 14, across all dosage levels tested",Improvements in alpha power
same,ERP P300 amplitude,"[10]; healthy subjects aged 18 to 62, NCT03856827",increase in amplitude with increasing dose level
same,headache (most commonly reported CNS event) rate,[11]; IW-6463 vs placebo,rates were similar between treatments
same,"AE reports of syncope, hypotension or other hemodynamic events",[11]; [14],"no AE reports of syncope, hypotension or other events potentially related to changes in hemodynamics"
same,blood pressure measurements below the normal range,[11]; [14],no blood pressure measurements reported below the normal range
